From patent US12691112B2, “FGFR tyrosine kinase inhibitors for the treatment of urothelial carcinoma” (Janssen Pharmaceutica NV, priority 2019, dated 2026)
Read-outs that look alike come from different tables or passages of the source.

Tested on: subjects with metastatic or surgically unresectable urothelial cancer
Description: Study treatment was administered on 28-day cycles. […] Patients were randomized 1:1 to 28-day cycles to the following 2 regimens until a regimen was selected for further study: Regimen 1 (10 mg once daily intermittent (7 days on/7 days); Regimen 2 (6 mg once daily continuous). Randomization was stratified according to performance status (0 to 1 vs. 2), hemoglobin value (<10 vs. ≥10 g per dl), FGFR alteration type (mutation vs. fusion), prior treatment status (chemotherapy-resistant vs. chemotherapy naïve), and disease distribution (presence or absence of visceral [liver, lung, bone]metastases). Starting dose selection was based on phase 1 efficacy and tolerability.
Based on interim analysis and pharmacokinetic-pharmacodynamic modeling of serum phosphate levels, starting dose was increased to 8 mg per day continuous (Regimen 3). Thus, after interim analysis, this became a single-arm study. […] Treatment continued until disease progression or unacceptable adverse event(s) per investigator.
Safety was evaluated based on clinical laboratory tests, physical exams, electrocardiograms, and ophthalmology examinations. Adverse events and abnormalities were assessed by investigator and graded per NCI CTCAE v.4.0
Prophylactic measures were taken to minimize risk of common adverse events related to FGFR inhibition. To reduce risk of hyperphosphatemia, a low-phosphate diet was recommended for all patients (600 to 800 mg of dietary phosphate intake per day). To reduce the risk of skin effects, the application of alcohol-free emollient moisturizing cream and avoidance of unnecessary exposure to sunlight, soap, perfumed products, and hot baths was recommended. Patients were asked to keep their fingers and toes clean and nails trimmed to reduce risk of nail effects.
Additional ophthalmology examinations were performed if clinically indicated.

COc1cc(OC)cc(N(CCNC(C)C)c2ccc3ncc(-c4cnn(C)c4)nc3c2)c1 [erdafitinib, N-(3,5-dimethoxy-phenyl)-N′-(1-methylethyl)-N-[3-(1-methyl-1H-pyrazol-4-yl)quinoxalin-6-yl]ethane-1,2-diamine]
Serious treatment-emergent: Dyspnea (6 mg continuous, n = 78): 1 (1) no. (%)
Serious treatment-emergent: Eye disorders (6 mg continuous, n = 78): 3 (4) no. (%)
Serious treatment-emergent: Gastrointestinal disorders (6 mg continuous, n = 78): 8 (10) no. (%)
Serious treatment-emergent: Infections and infestations (6 mg continuous, n = 78): 13 (17) no. (%)
Serious treatment-emergent: Metabolism and nutrition disorders (6 mg continuous, n = 78): 3 (4) no. (%)
Serious treatment-emergent: Nervous system disorders (6 mg continuous, n = 78): 5 (6) no. (%)
Serious treatment-emergent: Renal and urinary disorders (6 mg continuous, n = 78): 5 (6) no. (%)
Serious treatment-emergent: Respiratory, thoracic, mediastinal disorders (6 mg continuous, n = 78): 3 (4) no. (%)
Serious treatment-emergent: Urinary tract infection (6 mg continuous, n = 78): 4 (5) no. (%)
Serious treatment-emergent: Urosepsis (6 mg continuous, n = 78): 3 (4) no. (%)
Total number of patients with serious treatment-emergent adverse events (6 mg continuous, n = 78): 39 (50) no. (%)
Serious treatment-emergent: Dyspnea (8 mg continuous, n = 99): 2 (2) no. (%)
Serious treatment-emergent: Eye disorders (8 mg continuous, n = 99): 9 (9) no. (%)
Serious treatment-emergent: Gastrointestinal disorders (8 mg continuous, n = 99): 8 (8) no. (%)
Serious treatment-emergent: Infections and infestations (8 mg continuous, n = 99): 9 (9) no. (%)
Serious treatment-emergent: Metabolism and nutrition disorders (8 mg continuous, n = 99): 2 (2) no. (%)
Serious treatment-emergent: Nervous system disorders (8 mg continuous, n = 99): 1 (1) no. (%)
Serious treatment-emergent: Renal and urinary disorders (8 mg continuous, n = 99): 10 (10) no. (%)
Serious treatment-emergent: Respiratory, thoracic, mediastinal disorders (8 mg continuous, n = 99): 3 (3) no. (%)
Serious treatment-emergent: Urinary tract infection (8 mg continuous, n = 99): 3 (3) no. (%)
Serious treatment-emergent: Urosepsis (8 mg continuous, n = 99): 2 (2) no. (%)
Total number of patients with serious treatment-emergent adverse events (8 mg continuous, n = 99): 39 (39) no. (%)
Treatment-related Alanine aminotransferase increased, any grade (8 mg continuous, n = 99): 12 (12) no. (%)
Treatment-related Alanine aminotransferase increased, grade 1 (8 mg continuous, n = 99): 9 (9) no. (%)
Treatment-related Alanine aminotransferase increased, grade 2 (8 mg continuous, n = 99): 2 (2) no. (%)
Treatment-related Alanine aminotransferase increased, grade 3 (8 mg continuous, n = 99): 1 (1) no. (%)
Treatment-related Alopecia, any grade (8 mg continuous, n = 99): 27 (27) no. (%)
Treatment-related Alopecia, grade 1 (8 mg continuous, n = 99): 21 (21) no. (%)
Treatment-related Alopecia, grade 2 (8 mg continuous, n = 99): 6 (6) no. (%)
Treatment-related Alopecia, grade 3 (8 mg continuous, n = 99): 0 no. (%)
Treatment-related Asthenia, any grade (8 mg continuous, n = 99): 13 (13) no. (%)
Treatment-related Asthenia, grade 1 (8 mg continuous, n = 99): 2 (2) no. (%)
Treatment-related Asthenia, grade 2 (8 mg continuous, n = 99): 9 (9) no. (%)
Treatment-related Asthenia, grade 3 (8 mg continuous, n = 99): 2 (2) no. (%)
Treatment-related Decreased appetite, any grade (8 mg continuous, n = 99): 25 (25) no. (%)
Treatment-related Decreased appetite, grade 1 (8 mg continuous, n = 99): 11 (11) no. (%)
Treatment-related Decreased appetite, grade 2 (8 mg continuous, n = 99): 14 (14) no. (%)
Treatment-related Decreased appetite, grade 3 (8 mg continuous, n = 99): 0 no. (%)
Treatment-related Diarrhea, any grade (8 mg continuous, n = 99): 37 (37) no. (%)
Treatment-related Diarrhea, grade 1 (8 mg continuous, n = 99): 21 (21) no. (%)
Treatment-related Diarrhea, grade 2 (8 mg continuous, n = 99): 12 (12) no. (%)
Treatment-related Diarrhea, grade 3 (8 mg continuous, n = 99): 4 (4) no. (%)
Treatment-related Dry eye, any grade (8 mg continuous, n = 99): 19 (19) no. (%)
Treatment-related Dry eye, grade 1 (8 mg continuous, n = 99): 14 (14) no. (%)
Treatment-related Dry eye, grade 2 (8 mg continuous, n = 99): 4 (4) no. (%)
Treatment-related Dry eye, grade 3 (8 mg continuous, n = 99): 1 (1) no. (%)
Treatment-related Dry mouth, any grade (8 mg continuous, n = 99): 43 (43) no. (%)
Treatment-related Dry mouth, grade 1 (8 mg continuous, n = 99): 32 (32) no. (%)
Treatment-related Dry mouth, grade 2 (8 mg continuous, n = 99): 11 (11) no. (%)
Treatment-related Dry mouth, grade 3 (8 mg continuous, n = 99): 0 no. (%)
Treatment-related Dry skin, any grade (8 mg continuous, n = 99): 32 (32) no. (%)
Treatment-related Dry skin, grade 1 (8 mg continuous, n = 99): 24 (24) no. (%)
Treatment-related Dry skin, grade 2 (8 mg continuous, n = 99): 8 (8) no. (%)
Treatment-related Dry skin, grade 3 (8 mg continuous, n = 99): 0 no. (%)
Treatment-related Dysgeusia, any grade (8 mg continuous, n = 99): 35 (35) no. (%)
Treatment-related Dysgeusia, grade 1 (8 mg continuous, n = 99): 22 (22) no. (%)
Treatment-related Dysgeusia, grade 2 (8 mg continuous, n = 99): 12 (12) no. (%)
Treatment-related Dysgeusia, grade 3 (8 mg continuous, n = 99): 1 (1) no. (%)
Treatment-related Fatigue, any grade (8 mg continuous, n = 99): 21 (21) no. (%)
Treatment-related Fatigue, grade 1 (8 mg continuous, n = 99): 8 (8) no. (%)
Treatment-related Fatigue, grade 2 (8 mg continuous, n = 99): 11 (11) no. (%)
Treatment-related Fatigue, grade 3 (8 mg continuous, n = 99): 2 (2) no. (%)
Treatment-related Hand-foot syndrome, any grade (8 mg continuous, n = 99): 22 (22) no. (%)
Treatment-related Hand-foot syndrome, grade 1 (8 mg continuous, n = 99): 5 (5) no. (%)
Treatment-related Hand-foot syndrome, grade 2 (8 mg continuous, n = 99): 12 (12) no. (%)
Treatment-related Hand-foot syndrome, grade 3 (8 mg continuous, n = 99): 5 (5) no. (%)
Treatment-related Hyperphosphatemia, any grade (8 mg continuous, n = 99): 72 (73) no. (%)
Treatment-related Hyperphosphatemia, grade 1 (8 mg continuous, n = 99): 49 (50) no. (%)
Treatment-related Hyperphosphatemia, grade 2 (8 mg continuous, n = 99): 21 (21) no. (%)
Treatment-related Hyperphosphatemia, grade 3 (8 mg continuous, n = 99): 2 (2) no. (%)
Treatment-related Lacrimation increased, any grade (8 mg continuous, n = 99): 11 (11) no. (%)
Treatment-related Lacrimation increased, grade 1 (8 mg continuous, n = 99): 8 (8) no. (%)
Treatment-related Lacrimation increased, grade 2 (8 mg continuous, n = 99): 3 (3) no. (%)
Treatment-related Lacrimation increased, grade 3 (8 mg continuous, n = 99): 0 no. (%)
Treatment-related Nail dystrophy, any grade (8 mg continuous, n = 99): 16 (16) no. (%)
Treatment-related Nail dystrophy, grade 1 (8 mg continuous, n = 99): 5 (5) no. (%)
Treatment-related Nail dystrophy, grade 2 (8 mg continuous, n = 99): 5 (5) no. (%)
Treatment-related Nail dystrophy, grade 3 (8 mg continuous, n = 99): 6 (6) no. (%)
Treatment-related Onycholysis, any grade (8 mg continuous, n = 99): 16 (16) no. (%)
Treatment-related Onycholysis, grade 1 (8 mg continuous, n = 99): 4 (4) no. (%)
Treatment-related Onycholysis, grade 2 (8 mg continuous, n = 99): 10 (10) no. (%)
Treatment-related Onycholysis, grade 3 (8 mg continuous, n = 99): 2 (2) no. (%)
Treatment-related Paronychia, any grade (8 mg continuous, n = 99): 14 (14) no. (%)
Treatment-related Paronychia, grade 1 (8 mg continuous, n = 99): 1 (1) no. (%)
Treatment-related Paronychia, grade 2 (8 mg continuous, n = 99): 10 (10) no. (%)
